“And” between values parts separate entries of the source, which are not always exact repeats. Equal values may be shown once. Where a name gives a salt, the structure may show the parent alone.

This assay concerns the target T1, recombinant human AMPK complex, containing α2β1γ2 (Homo sapiens, UniProt P54646+Q9Y478).
T1 construct: hsAMPKα2-552-His, hsAMPKβ1-2-270 and hsAMPKγ-2-569 respectively; hsAMPKβ1-2-270; hsAMPKγ-2-569; His (C); made in house; host or cells: Spodoptera frugiperda Sf21 (baculovirus)
In words: AMPK in vitro activation assay (HTRF). It is filed as biochemical. To be noted: for EC50: HTRF, recombinant human α2β1γ2 AMPK, 200 μM ATP, biotinylated ACC-CREBp peptide, repeat determinations on separate lines; for Emax: potentiation of AMPK activity as percent over the basal signal (without compound). The method in brief:
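Sf21-expressed, Ni-NTA partially purified α2β1γ2 complex preincubated 30 min at room temperature with compound (0.5% DMSO) in HEPES pH 7.0, MgCl2, DTT. Reaction was started with a solution holding 200 μM ATP and 2 or 0.08 μM biotinylated ACC-CREBp peptide, run 45 min at 37° C, then read by HTRF with anti-pS133-CREB; EC50 from percent over basal.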

T1 sequence (P54646 2-552): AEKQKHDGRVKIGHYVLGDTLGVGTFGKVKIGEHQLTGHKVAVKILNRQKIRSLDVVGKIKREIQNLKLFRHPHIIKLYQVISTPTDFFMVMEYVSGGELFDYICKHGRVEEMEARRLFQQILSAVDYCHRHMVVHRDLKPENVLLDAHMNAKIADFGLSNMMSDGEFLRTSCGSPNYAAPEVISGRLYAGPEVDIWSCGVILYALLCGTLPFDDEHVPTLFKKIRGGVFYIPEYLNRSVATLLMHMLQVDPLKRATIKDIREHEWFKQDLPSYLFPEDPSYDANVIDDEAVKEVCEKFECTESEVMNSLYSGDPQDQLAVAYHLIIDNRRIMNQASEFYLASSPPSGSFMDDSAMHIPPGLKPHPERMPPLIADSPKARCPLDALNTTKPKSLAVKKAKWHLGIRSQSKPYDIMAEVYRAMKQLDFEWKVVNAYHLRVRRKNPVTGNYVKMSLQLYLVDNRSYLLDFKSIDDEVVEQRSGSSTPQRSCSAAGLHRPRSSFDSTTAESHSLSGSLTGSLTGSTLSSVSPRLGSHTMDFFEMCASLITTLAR
T1 sequence (Q9Y478 2-270): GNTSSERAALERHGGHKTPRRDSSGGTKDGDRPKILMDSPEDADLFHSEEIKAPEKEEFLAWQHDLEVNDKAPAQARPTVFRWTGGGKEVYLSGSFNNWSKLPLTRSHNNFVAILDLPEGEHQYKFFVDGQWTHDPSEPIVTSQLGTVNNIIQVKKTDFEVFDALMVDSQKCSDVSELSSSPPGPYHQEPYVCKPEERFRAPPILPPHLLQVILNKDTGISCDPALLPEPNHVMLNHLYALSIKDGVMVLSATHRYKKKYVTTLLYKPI
T1 sequence (Q9UGJ0 2-569 partner limits assumed): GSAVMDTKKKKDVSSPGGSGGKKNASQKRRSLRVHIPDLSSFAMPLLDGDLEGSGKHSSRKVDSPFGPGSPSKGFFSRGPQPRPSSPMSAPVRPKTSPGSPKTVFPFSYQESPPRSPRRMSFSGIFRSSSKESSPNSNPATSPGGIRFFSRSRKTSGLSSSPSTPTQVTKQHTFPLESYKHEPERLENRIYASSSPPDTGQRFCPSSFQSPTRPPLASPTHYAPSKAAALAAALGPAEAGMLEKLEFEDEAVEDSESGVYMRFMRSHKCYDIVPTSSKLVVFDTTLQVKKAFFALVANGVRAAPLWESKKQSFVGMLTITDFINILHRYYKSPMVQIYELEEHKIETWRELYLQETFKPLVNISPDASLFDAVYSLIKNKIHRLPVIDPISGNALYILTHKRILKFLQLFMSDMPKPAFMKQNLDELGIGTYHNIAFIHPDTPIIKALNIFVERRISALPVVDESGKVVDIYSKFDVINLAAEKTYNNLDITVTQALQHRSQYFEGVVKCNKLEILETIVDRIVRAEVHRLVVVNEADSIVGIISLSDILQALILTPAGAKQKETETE

For `CC(C)(C)c1cc(C(O)=C2C(=O)Nc3cc(Cl)c(-c4ccc(C5(CO)CC5)cc4)cc32)on1` [Compound 76, 3-[1-(3-tert-Butyl-isoxazol-5-yl)-1-hydroxy-methylidene]-6-chloro-5-[4-(1-hydroxymethyl-cyclopropyl)phenyl]-1,3-dihydro-indol-2-one], the concentration giving a half-maximal response (EC50) is 2 nM and the maximum response (Emax) came out at 124%.
The like results for `COc1ccc(C(O)=C2C(=O)Nc3cc(Cl)c(-c4ccc(N5CCOCC5)cc4)cc32)cc1F` [Compound 77, 6-Chloro-3-[1-(3-fluoro-4-methoxy-phenyl)-1-hydroxy-methylidene]-5-(4-morpholin-4-yl-phenyl)-1,3-dihydro-indol-2-one] were, in that order, 0.5 nM and 128%.
On to `Cc1cc(C(O)=C2C(=O)Nc3cc(Cl)c(-c4ccc(C5CCN(C)CC5)cc4)cc32)on1` [Compound 78, 6-Chloro-3-[1-hydroxy-1-(3-methyl-isoxazol-5-yl)methylidene]-5-[4-(1-methyl-piperidin-4-yl)phenyl]-1,3-dihydro-indol-2-one, hydrochloride], for which the concentration giving a half-maximal response (EC50) was found to be 7 nM and the maximum response (Emax) is 141%.
For `COCCOc1cc(C(O)=C2C(=O)Nc3cc(Cl)c(-c4ccc(-c5cccc(OC)c5O)cc4)cc32)on1` [Compound 79, 6-chloro-3-[hydroxy-[3-(2-methoxyethoxy)isoxazol-5-yl]methylene]-5-[4-(2-hydroxy-3-methoxy-phenyl)phenyl]indolin-2-one], the EC50 is 38 nM and the maximum response (Emax) is 133%.
On the same counts, the results for `Cc1cc(C(O)=C2C(=O)Nc3cc(Cl)c(-c4ccc(C(O)(CO)CCl)cc4)cc32)on1` (stereo not drawn) [Compound 80, 6-chloro-5-[4-[1-(chloromethyl)-1,2-dihydroxy-ethyl]phenyl]-3-[hydroxy-(3-methylisoxazol-5-yl)methylene]indolin-2-one] are 15 nM and 99%.
As for `COc1cc(-c2cc3c(cc2Cl)NC(=O)C3=C(O)c2cc(C)no2)ccc1O` [Compound 81, 6-chloro-5-(4-hydroxy-3-methoxy-phenyl)-3-[hydroxy-(3-methylisoxazol-5-yl)methylene]indolin-2-one], the EC50 came out at 780 nM and the Emax was found to be 136%.
Regarding `Cc1cc(C(O)=C2C(=O)Nc3cc(Cl)c(-c4ccc(OCCN5CCOCC5)cc4)cc32)on1` [Compound 82, 6-chloro-3-[hydroxy-(3-methylisoxazol-5-yl)methylene]-5-[4-(2-morpholinoethoxy)phenyl]indolin-2-one hydrochloride], the EC50 stood at 280 nM and the Emax came to 130%.
Take `COc1cc(C(O)=C2C(=O)Nc3cc(F)c(-c4ccc(C5(CO)CC5)cc4)c(F)c32)on1` [Compound 83, 4,6-difluoro-3-[hydroxy-(3-methoxyisoxazol-5-yl)methylene]-5-[4-[1-(hydroxymethyl)cyclopropyl]phenyl]indolin-2-one]: the EC50 came out at 0.1 nM.
With `COc1ccc(C(O)=C2C(=O)Nc3cc(Cl)c(-c4ccc(-c5cccc(OC)c5O)cc4)cc32)cc1F` [Compound 84, 6-chloro-3-[(3-fluoro-4-methoxy-phenyl)hydroxy-methylene]-5-[4-(2-hydroxy-3-methoxy-phenyl)phenyl]indolin-2-one], the EC50 is 0.6 nM and 1 nM; the maximal effect (Emax) was determined as 170%.
Take `Cc1cc(C(O)=C2C(=O)Nc3cc(Cl)c(-c4ccc(C5(CO)CC5)cc4F)cc32)on1` [Compound 85, 6-chloro-5-[2-fluoro-4-[1-(hydroxymethyl)cyclopropyl]phenyl]-3-[hydroxy-(3-methylisoxazol-5-yl)methylene]indolin-2-one]: the concentration giving a half-maximal response (EC50) came out at 1 nM and the maximal effect (Emax) was determined as 151%.
The like results for `O=C1Nc2cc(Cl)c(-c3ccc(N4CCOCC4)cc3)cc2C1=C(O)c1cc(C2CCCCC2)no1` [Compound 86, 6-chloro-3-[(3-cyclohexylisoxazol-5-yl)hydroxy-methylene]-5-(4-morpholinophenyl)indolin-2-one] were, in that order, 61 nM and 155%.

The EC50 is the concentration that produces a half-maximal response. The term Emax denotes the greatest response seen or fitted, relative to the assay's reference.

The record behind these values is patent US10077237B2 (Sanofi, priority 2013, dated 2018).
